In patent publication US20250243180A1, “TARGETED PROTEIN DEGRADATION” (Monte Rosa Therapeutics AG, priority 2023, published 2025):
Where a name gives a salt, the structure may show the parent alone. Read-outs that look alike come from different tables or passages of the source.

What was measured:
CRBN-DDB1 = CRBN-DDB1 (Homo sapiens (Human), UniProt Q96SW2); assay: Compound binding to CRBN by HTRF assay
Procedure, shortened: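 HTRF displacement of Cy5-thalidomide probe (100 nM) from His-tagged CRBN-DDB1 (2.5 nM) with anti-His terbium cryptate, in HEPES/NaCl/TCEP/EDTA/Tween20 buffer; 11-point 1:3 dilution series, 30 min at ambient temperature. Signal (665/620 nm) normalized to lenalidomide and DMSO controls; EC50 fitted, Ki by Cheng-Prusoff from geometric mean EC50.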

NEK7 = NEK7 (Homo sapiens (Human), UniProt Q8TDX7+Q96SW2); assay: NEK7 NanoBiT degradation assay in Cal51 NEK7 NanoBiT cell line; type: cell-based; conditions: Cal51 NEK7 NanoBiT cells, 24 hours; for Dmax: CAL-51
Sequence of NEK7 (Q8TDX7 whole entry): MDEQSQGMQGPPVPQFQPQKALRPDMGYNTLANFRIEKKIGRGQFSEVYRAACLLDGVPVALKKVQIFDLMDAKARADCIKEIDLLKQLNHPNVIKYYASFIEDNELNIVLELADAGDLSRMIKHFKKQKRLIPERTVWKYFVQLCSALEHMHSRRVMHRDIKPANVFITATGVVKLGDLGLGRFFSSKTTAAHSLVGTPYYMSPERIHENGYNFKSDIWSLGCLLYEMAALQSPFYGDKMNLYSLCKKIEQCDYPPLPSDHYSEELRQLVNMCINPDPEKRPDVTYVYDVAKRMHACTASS
Sequence of NEK7 (Q96SW2 whole entry): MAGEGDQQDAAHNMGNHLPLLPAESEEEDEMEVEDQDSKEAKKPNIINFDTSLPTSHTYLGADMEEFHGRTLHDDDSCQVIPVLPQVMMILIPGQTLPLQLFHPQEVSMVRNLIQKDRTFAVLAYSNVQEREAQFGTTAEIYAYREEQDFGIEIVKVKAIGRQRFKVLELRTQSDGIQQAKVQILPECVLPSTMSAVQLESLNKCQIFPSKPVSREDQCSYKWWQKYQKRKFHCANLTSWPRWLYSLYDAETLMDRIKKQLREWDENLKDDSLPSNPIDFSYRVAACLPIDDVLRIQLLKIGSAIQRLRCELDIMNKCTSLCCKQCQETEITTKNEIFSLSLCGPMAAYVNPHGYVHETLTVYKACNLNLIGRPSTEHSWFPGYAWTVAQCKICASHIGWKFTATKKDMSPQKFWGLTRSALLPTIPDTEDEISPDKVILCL
Sequence of NEK7 (Q16531 2-1140 partner): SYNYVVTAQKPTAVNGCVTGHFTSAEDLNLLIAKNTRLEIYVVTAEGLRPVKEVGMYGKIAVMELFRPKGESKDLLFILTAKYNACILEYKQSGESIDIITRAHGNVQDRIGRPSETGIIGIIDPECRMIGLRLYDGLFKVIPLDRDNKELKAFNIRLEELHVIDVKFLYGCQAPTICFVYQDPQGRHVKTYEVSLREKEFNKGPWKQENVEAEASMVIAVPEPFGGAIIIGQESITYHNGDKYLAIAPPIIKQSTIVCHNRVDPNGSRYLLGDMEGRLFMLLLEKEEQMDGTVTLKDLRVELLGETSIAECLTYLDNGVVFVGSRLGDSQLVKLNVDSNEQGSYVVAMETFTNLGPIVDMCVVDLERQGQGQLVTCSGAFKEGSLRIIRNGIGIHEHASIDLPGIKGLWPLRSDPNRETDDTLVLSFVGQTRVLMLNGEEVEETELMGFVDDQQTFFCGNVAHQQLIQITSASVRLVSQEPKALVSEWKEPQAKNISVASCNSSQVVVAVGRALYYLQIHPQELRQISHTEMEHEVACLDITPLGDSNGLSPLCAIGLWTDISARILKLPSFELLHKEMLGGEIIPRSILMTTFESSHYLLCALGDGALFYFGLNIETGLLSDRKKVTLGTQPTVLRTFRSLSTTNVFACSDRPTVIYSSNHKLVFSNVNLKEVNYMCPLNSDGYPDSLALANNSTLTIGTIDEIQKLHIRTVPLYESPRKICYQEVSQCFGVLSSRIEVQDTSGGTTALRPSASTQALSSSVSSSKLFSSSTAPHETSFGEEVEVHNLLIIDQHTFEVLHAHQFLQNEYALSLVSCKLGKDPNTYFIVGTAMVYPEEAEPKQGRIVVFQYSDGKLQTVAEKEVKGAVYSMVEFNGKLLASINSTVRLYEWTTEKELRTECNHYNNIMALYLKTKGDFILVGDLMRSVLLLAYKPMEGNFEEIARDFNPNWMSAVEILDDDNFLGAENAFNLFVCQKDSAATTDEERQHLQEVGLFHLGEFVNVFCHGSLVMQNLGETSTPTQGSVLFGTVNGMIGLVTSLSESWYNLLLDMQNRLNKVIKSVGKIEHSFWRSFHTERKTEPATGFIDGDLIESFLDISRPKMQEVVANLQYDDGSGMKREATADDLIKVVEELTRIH
Procedure, shortened: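 Cal51 cells with CRISPR knock-in HiBiT-tagged endogenous NEK7 plus stable LgBiT, in live-cell Endurazine medium, seeded 16 h before dosing. Compounds at final 1 μM to 0.05 nM for 24 h at 37 °C, then luminescence read. Response normalized to plate controls and fitted with a 4-parameter logistic giving EC50.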

[1] = NEK7 degradation, read-out: NanoBiT Dmax
[2] = NEK7 degradation, read-out: NanoBiT DC50

Sequence of CRBN-DDB1 (Q96SW2 whole entry): as the sequence (Q96SW2 whole entry) above
Sequence of CRBN-DDB1 (Q16531 whole entry partner): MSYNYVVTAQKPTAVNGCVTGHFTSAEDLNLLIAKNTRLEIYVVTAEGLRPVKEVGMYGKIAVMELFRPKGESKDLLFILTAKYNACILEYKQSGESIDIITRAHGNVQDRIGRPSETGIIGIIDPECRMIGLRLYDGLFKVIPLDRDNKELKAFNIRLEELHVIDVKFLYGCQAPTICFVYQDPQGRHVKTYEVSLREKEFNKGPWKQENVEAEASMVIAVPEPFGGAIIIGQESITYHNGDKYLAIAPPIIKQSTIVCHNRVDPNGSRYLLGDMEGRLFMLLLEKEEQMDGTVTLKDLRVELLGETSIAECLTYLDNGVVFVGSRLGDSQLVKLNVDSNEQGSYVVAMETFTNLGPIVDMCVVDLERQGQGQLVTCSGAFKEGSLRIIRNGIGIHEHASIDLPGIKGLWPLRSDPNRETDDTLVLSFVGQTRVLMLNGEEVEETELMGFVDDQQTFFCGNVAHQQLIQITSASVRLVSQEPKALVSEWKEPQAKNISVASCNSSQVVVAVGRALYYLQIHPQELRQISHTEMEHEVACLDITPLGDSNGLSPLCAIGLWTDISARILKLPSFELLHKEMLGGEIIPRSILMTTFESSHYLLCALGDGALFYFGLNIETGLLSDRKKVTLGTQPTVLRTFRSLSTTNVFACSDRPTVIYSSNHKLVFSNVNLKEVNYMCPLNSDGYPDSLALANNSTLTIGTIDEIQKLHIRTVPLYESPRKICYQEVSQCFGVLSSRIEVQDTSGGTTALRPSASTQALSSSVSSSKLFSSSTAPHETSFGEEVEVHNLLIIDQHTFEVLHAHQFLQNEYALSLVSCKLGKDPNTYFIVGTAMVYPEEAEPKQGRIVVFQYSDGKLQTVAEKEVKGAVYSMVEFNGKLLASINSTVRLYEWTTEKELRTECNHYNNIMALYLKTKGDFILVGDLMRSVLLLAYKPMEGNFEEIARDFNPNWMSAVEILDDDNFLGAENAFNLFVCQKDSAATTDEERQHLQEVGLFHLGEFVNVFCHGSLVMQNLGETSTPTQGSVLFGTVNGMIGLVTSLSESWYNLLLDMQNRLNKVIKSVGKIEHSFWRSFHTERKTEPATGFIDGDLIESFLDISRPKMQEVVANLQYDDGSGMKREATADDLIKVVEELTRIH

SMILES	EC50 (CRBN-DDB1)	EC50 (CRBN-DDB1; HTRF class, Cereblon binding)	Dmax (NEK7; read-out: NEK7 NanoBiT Dmax)	Dmax (NEK7; [1])	DC50 (NEK7; read-out: NEK7 NanoBiT DC50)	DC50 (NEK7; [2])
CC(C)(C(=O)NCc1cc(Cl)c(C2CCC(=O)NC2=O)c(Cl)c1)c1ccns1 (stereo not drawn) [Compound 125]	70 nM	≤ 100 nM	71%	50 to 75%	54 nM	≤ 100 nM
O=C1CCC(c2c(Cl)cc(CNC(=O)C3(c4ccccc4)CCOCC3)cc2Cl)C(=O)N1 (stereo not drawn) [Compound 128, N-(3,5-dichloro-4-(2,6-dioxopiperidin-3-yl)benzyl)-4-phenyltetrahydro-2H-pyran-4-carboxamide]	40 nM	≤ 100 nM	95%	> 75%	8 nM	≤ 100 nM
O=C1CCC(c2c(Cl)cc(CNC(=O)C3(c4ccccc4)COC3)cc2Cl)C(=O)N1 (stereo not drawn) [Compound 129]	90 nM	≤ 100 nM	90%	> 75%	22 nM	≤ 100 nM
O=C1CCC(c2c(Cl)cc(CNC(=O)C3(c4ccc5cn[nH]c5c4)CCOCC3)cc2Cl)C(=O)N1 (stereo not drawn) [Compound 131, N-(3,5-dichloro-4-(2,6-dioxopiperidin-3-yl)benzyl)-4-(1H-indazol-6-yl)tetrahydro-2H-pyran-4-carboxamide]	20 nM	≤ 100 nM	96%	> 75%	1 nM	≤ 100 nM
CN1CCC(C(=O)NCc2cc(Cl)c(C3CCC(=O)NC3=O)c(Cl)c2)(c2ccc(F)cc2)CC1 (stereo not drawn) [Compound 135, N-(3,5-dichloro-4-(2,6-dioxopiperidin-3-yl)benzyl)-4-(4-fluorophenyl)-1-methylpiperidine-4-carboxamide formate]	20 nM	≤ 100 nM	71%	50 to 75%	16 nM	≤ 100 nM
O=C1CC(C(=O)NCc2cc(Cl)c(C3CCC(=O)NC3=O)c(Cl)c2)(c2ccc(F)cc2)C1 (stereo not drawn) [Compound 137, N-(3,5-dichloro-4-(2,6-dioxopiperidin-3-yl)benzyl)-1-(4-fluorophenyl)-3-oxocyclobutane-1-carboxamide]	50 nM	≤ 100 nM	97%	> 75%	1 nM	≤ 100 nM
O=C1CCC(c2c(Cl)cc(CNC(=O)C3(c4ccc(F)cc4)CCOC3)cc2Cl)C(=O)N1 (stereo not drawn) [Compound 141]	20 nM	≤ 100 nM	91%	> 75%	6 nM	≤ 100 nM
O=C1CCC(c2c(Cl)cc(CNC(=O)C3(c4ccc(F)cc4)CCOCC3)cc2Cl)C(=O)N1 (stereo not drawn) [Compound 142]	50 nM	≤ 100 nM	94%	> 75%	3 nM	≤ 100 nM
O=C1CCC(c2c(Cl)cc(CNC(=O)C3(c4ccncc4)CCCC3)cc2Cl)C(=O)N1 (stereo not drawn) [Compound 143, N-(3,5-dichloro-4-(2,6-dioxopiperidin-3-yl)benzyl)-1-(pyridin-4-yl)cyclopentane-1-carboxamide]	40 nM	≤ 100 nM	92%	> 75%	3 nM	≤ 100 nM
O=C1CCC(c2c(Cl)cc(CNC(=O)C3(c4ccncc4)CCC3)cc2Cl)C(=O)N1 (stereo not drawn) [Compound 144]	50 nM	≤ 100 nM	78%	> 75%	6 nM	≤ 100 nM
Cc1cc(C(C)(C)C(=O)NCc2cc(Cl)c(C3CCC(=O)NC3=O)c(Cl)c2)no1 (stereo not drawn) [Compound 145]	430 nM	100 to 1000 nM	86%	> 75%	10 nM	≤ 100 nM

Continued by falling EC50 (CRBN-DDB1), values first:

EC50 (CRBN-DDB1)	EC50 (CRBN-DDB1; HTRF class, Cereblon binding)	Dmax (NEK7; read-out: NEK7 NanoBiT Dmax)	Dmax (NEK7; [1])	DC50 (NEK7; read-out: NEK7 NanoBiT DC50)	DC50 (NEK7; [2])	SMILES
180 nM	100 to 1000 nM	88%	> 75%	26 nM	≤ 100 nM	O=C1CCC(c2ccc(CNC(=O)C3(c4ccc(F)cc4)CCOCC3)cc2Cl)C(=O)N1 (stereo not drawn) [Compound 138]
90 nM	≤ 100 nM	89%	> 75%	14 nM	≤ 100 nM	O=C1CCC(c2c(Cl)cc(CNC(=O)C3(c4ccc(F)cc4)COC3)cc2Cl)C(=O)N1 (stereo not drawn) [Compound 140]
70 nM	≤ 100 nM	93%	> 75%	2 nM	≤ 100 nM	Cn1ncc2ccc(C3(C(=O)NCc4cc(Cl)c(C5CCC(=O)NC5=O)c(Cl)c4)CC(=O)C3)cc21 (stereo not drawn) [Compound 134, N-(3,5-dichloro-4-(2,6-dioxopiperidin-3-yl)benzyl)-1-(1-methyl-1H-indazol-6-yl)-3-oxocyclobutane-1-carboxamide]
60 nM	≤ 100 nM	65%	50 to 75%	63 nM	≤ 100 nM	O=C1CCC(c2c(Cl)cc(CNC(=O)C3(c4ccnc(F)c4)CC(F)(F)C3)cc2Cl)C(=O)N1 (stereo not drawn) [Compound 136, N-(3,5-dichloro-4-(2,6-dioxopiperidin-3-yl)benzyl)-3,3-difluoro-1-(2-fluoropyridin-4-yl)cyclobutane-1-carboxamide]
50 nM	≤ 100 nM	94%	> 75%	3 nM	≤ 100 nM	CC(C)(C(=O)NCc1cc(Cl)c(C2CCC(=O)NC2=O)c(Cl)c1)c1ccsc1 (stereo not drawn) [Compound 126, N-(3,5-dichloro-4-(2,6-dioxopiperidin-3-yl)benzyl)-2-methyl-2-(thiophen-3-yl)propanamide]
50 nM	≤ 100 nM	92%	> 75%	5 nM	≤ 100 nM	O=C1CCC(c2c(Cl)cc(CNC(=O)C3(c4ccc5[nH]ncc5c4)CCOCC3)cc2Cl)C(=O)N1 (stereo not drawn) [Compound 132, N-(3,5-dichloro-4-(2,6-dioxopiperidin-3-yl)benzyl)-4-(1H-indazol-5-yl)tetrahydro-2H-pyran-4-carboxamide]
40 nM	≤ 100 nM	90%	> 75%	5 nM	≤ 100 nM	O=C1CCC(c2c(Cl)cc(CNC(=O)C3(c4ccccc4)CCOC3)cc2Cl)C(=O)N1 (stereo not drawn) [Compound 127, N-(3,5-dichloro-4-(2,6-dioxopiperidin-3-yl)benzyl)-3-phenyltetrahydrofuran-3-carboxamide]
40 nM	≤ 100 nM	96%	> 75%	2 nM	≤ 100 nM	O=C1CCC(c2c(Cl)cc(CNC(=O)C3(c4ccccc4)CCC3)cc2Cl)C(=O)N1 (stereo not drawn) [Compound 130, N-(3,5-dichloro-4-(2,6-dioxopiperidin-3-yl)benzyl)-1-phenylcyclobutane-1-carboxamide]
40 nM	≤ 100 nM	90%	> 75%	8 nM	≤ 100 nM	O=C1CCC(c2c(Cl)cc(CNC(=O)C3(c4ccc(F)cc4)CC(F)(F)C3)cc2Cl)C(=O)N1 (stereo not drawn) [Compound 139, N-(3,5-dichloro-4-(2,6-dioxopiperidin-3-yl)benzyl)-3,3-difluoro-1-(4-fluorophenyl)cyclobutane-carboxamide]
30 nM	≤ 100 nM	94%	> 75%	2 nM	≤ 100 nM	Cn1ncc2ccc(C3(C(=O)NCc4cc(Cl)c(C5CCC(=O)NC5=O)c(Cl)c4)CCOCC3)cc21 (stereo not drawn) [Compound 133]
